The text below walks through data of US11591284B2, “Compounds for the treatment of neuromuscular disorders” (NMD Pharma A/S, priority 2017, dated 2023).

Where two headings read alike, the source gives them in different places.

Series [1] relates to isolated rat soleus muscles. The experiment in a line: Recovery of nerve-stimulated force in isolated rat soleus muscles exposed to sub-maximal tubocurarine. To be noted: for 500 μM % change after addition: 500 μM compound. As to the method: FIGS. 3A-3B. […] The motor nerve was stimulated every 10 min for 2 s with 30 Hz with field stimulation using short duration pulses. […] Traces are shown before addition tubocurarine, after 40 min with tubocurarine, and after 110 min tubocurarine. […] This recovery of force was used in Table 1.
(§1) In all contraction experiments, isometric force production was determined and force produced during contractions was quantified by measuring the integral of the force response (AUC). Stimulation and force recordings have been described elsewhere. […] In these latter experiments, extracellular recordings of action potentials (M-waves) could be measured without temporal overlap with stimulation artefacts.
(§2) To initially confirm that inhibition of CIC-1 ion channels can be used to recover contractile force in muscle with reduced neuromuscular transmission, isolated nerve-muscle preparations were first exposed to either tubocurarine (FIG. 2A) or elevated Mg^2+ (FIG. 2B) and then a specific CIC-1 inhibitor (9-AC) was added.
To identify CIC-1 inhibitors that could be used for treatment of neuromuscular disorders we repeated the experiment shown in FIG. 2A but instead of adding 9-AC we added the compounds of interest in different concentrations within the range from 10 to 500 μM. […] For comparison with the muscle only exposed to tubocurarine (grey trace), the two traces have been overlaid. […] For comparison, muscles only exposed to tubocurarine have been included. The dotted line indicates the recovery of force with C8 when compared to the force production before its addition. This value was used in Table 1 for evaluation of the efficacy of the different compounds in recovering force.

Series [2] concerns isolated rat soleus muscles. The experiment in a line: Recovery of nerve-stimulated force in isolated rat soleus muscles exposed to 3.5 mM Mg2+. The method, then:
as §1
The aim was to find compounds that by inhibition of CIC-1 channels can recover nerve-stimulated force under conditions of fatigue including conditions where fatigue is caused by compromised neuromuscular transmission. Neuromuscular transmission dysfunction can develop because of both pre- and/or post-synaptic complications in connection with a disorder or as part of neuromuscular blockade during/after surgery. In the initial series of drug testing, experiments were performed with isolated muscles in the presence of sub-maximal ACh receptor antagonist tubocurarine. Since the inclusion of tubocurarine caused a partial loss of neuromuscular transmission this experiment mimics the conditions in myasthenia gravis and neuromuscular blockade. To mimic conditions with pre-synaptic complication (Lambert Eaton syndrome, motor neuron disorder, polyneuropathy) the intact nerve-muscle preparations were incubated at elevated extracellular Mg^2+, which is known to suppress release of ACh from nerve terminals of motor neurons.
as §2
The next series of experiments determined whether the compounds that recovered nerve-stimulated force in the presence of tubocurarine could also recover nerve-stimulated force at elevated extracellular Mg^2+.

For series [3], the system named is rats. As to the kind of experiment: Rotarod running performance of rats after I.P. tubocurarine. It counts as in vivo, rat. To be noted: 20 mg/kg I.P., 2 hrs before tubocurarine (0.13 mg/kg I.P.); tested 21 min after tubocurarine; sham around 2%. The method, then: FIGS. 9A-9B. […] FIG. 9A illustrates the design of the experiments. Prior to Day One the animals had been familiarized to the rotarod in three training sessions distributed over two days.
(§3) In both series of experiments, running performance was tested on a rotarod using a protocol where the rod was accelerated gradually over a 5 min period, and the running time and covered distance before falling off the rod were measured. […] Experiments with tubocurarine were carried out over two days, and on each day the effect of tubocurarine on running performance was tested. On the first day only tubocurarine was injected. […] On the second day, the animals were first allowed to run on the rotarod, and all animals performed normally. […] The allocation of the animals into the two groups (C8 or sham) was random and unknown to the experimenter (blinded experimental design).
In the first series of in vivo experiments, myasthenia gravis was simply mimicked by I.P. injection of tubocurarine (0.13 mg/kg) in animals that had been familiarized to running on the rotarod. On the first of two consecutive days, tubocurarine was injected I.P. and the running performance of the animal was tested 21 minutes after this injection. On the second day of experimentation, the animals first performed a test run to ensure that they were no longer affected by the tubocurarine injected the day before. […]

In series [4] the test system is soleus muscles. The experiment in a line: Mg2+ concentration required to depress nerve-stimulated force by 50% (Kd,Mg2+) in soleus muscles. On the set-up: species or system rat. To be noted: combination of C8 and 3,4-diaminopyridine. As to the method: FIGS. 6A-6E. […] Muscles from 4-week-old rats were stimulated to contract by activating the motor nerve with short duration pulses in field stimulation. Muscles contracted every 10 min for 2 s in response to 30 Hz stimulation. Four different experimental conditions were used. […] C) similar to A) but this muscle had been pre-incubated with 3,4-AP. […] The force integral (AUC) was determined at each extracellular Mg^2+ concentration. AUC was plotted against Mg^2+ concentration and the data was fitted to a sigmoidal function. This provided the extracellular Mg^2+ concentration that was required to reduce the nerve-stimulated force to 50% (Mg50) under the four different conditions (see Table 5).
While the use of tubocurarine mimics conditions with reduced neuromuscular transmission due to post-synaptic dysfunction (myasthenia gravis, neuromuscular blockade), the experiments with elevated extracellular Mg^2+ mimics conditions with pre-synaptic dysfunction akin to a range of neuromuscular disorders including Lambert Eaton syndrome, motor neuron disorders and polyneuropathy. […] Based on this it was determined whether recovery of nerve-stimulated force at elevated extracellular Mg^2+ with CIC-1 inhibiting compounds could be added to force recovery with 3,4-AP. […] To quantify the effect of compounds on Mg^2+ sensitivity the force at the different Mg^2+ concentrations was determined. […]

The nature of series [5]: Pharmacokinetic analysis of a single I.P. dose in rats. In kind it is in vivo, Sprague-Dawley rats. To be noted: rat, single I.P. dose 10 mg/kg, plasma. The method, then:
This part of the study was performed by Pipeline Biotech A/S (Spørring, Denmark). […] Plasma concentrations (free and bound) were determined by OnTarget Chemistry (Uppsala, Sweden, Project No.: PB243-001).
Before conducting in vivo experiments with animal models of myasthenia gravis, some pharmacokinetic details were obtained for C8 in response to one-bolus I.P. injection.

In series [6] the test system is isolated rat soleus muscles. The experiment in a line: Recovery of nerve-stimulated force in isolated rat soleus muscles with ACh receptors inhibited by 2 μM rocuronium. The following applies: 50 μM compound added after 2 μM rocuronium had reduced force to 51±5%; 8 muscles; p<0.01. The method, then:
In a separate series of experiments with 8 isolated rat soleus muscles, ACh receptors were inhibited using 2 μM rocuronium, which is a clinically used neuromuscular blocking agent. Under these conditions the nerve-stimulated force was reduced to 51±5% of force before rocuronium. […] This illustrates the potential of these compounds to be used as reversal agents.

In series [7] the test system is rat soleus muscle. In kind it is cell-based. To be noted: 10 and 25 μM; 1 μM μ-conotoxin GiiiB.
Series [8] relates to isolated human muscles. The following applies: human muscle; 150 μM (FIG. 8A).
Series [9] relates to rats. The experiment in a line: Rotarod running performance in passive myasthenia gravis induced with MAB35 monoclonal antibody. It counts as in vivo, rat. To be noted: MAB35 model, compared with sham. As to the method:
FIG. 10. […] Prior to I.P. injection of MAB35 the animals had been familiarized to the rotarod over three training sessions distributed over two days. […] After this treatment performance was monitored every second hour. *Indicates significant different as evaluated using student t-test.
as §3
In experiments with MAB35, animals were first familiarized with the rotarod over two consecutive days and then injected I.P. with MAB35. After injection, rotarod performance was then again monitored regularly over the consecutive two days. […] A considerable number of animals, however, became moribund failing to walk and they had altered ventilation (rapid) and pronounced ptosis. These animals were not included in experiments. […]

The mark [10] stands for this setting: 150 μM compound, % change in AUC force compared to AUC after 40 min in tubocurarine, before addition.
The mark [11] stands for this setting: % change in AUC force compared to AUC after 40 min in tubocurarine, before addition.

With `O=C(O)c1c2ccccc2cc2ccccc12` [Compound 9-AC, reference compound], the “recovery of force and M-wave signal” value is “marked recovery of both force and M-wave signal” in series [1] (9-AC added after tubocurarine (FIG. 2A)); “marked recovery of both force and M-wave signal” in [2] (9-AC added at elevated Mg2+ (FIG. 2B)).

Consider `C[C@H](OCc1ccccc1)C(=O)O` [Compound C5, (2S)-2-(benzyloxy)propanoic acid], for which the “150 μM % change after addition” value in series [1] (setting [10]) is 1%. The “500 μM % change after addition” value in series [1] (setting [11]) was 42%.

As to `CC(C(=O)O)S(=O)(=O)c1ccc(F)cc1` (stereo not shown) [Compound C6, 2-(4-fluorobenzenesulfonyl)propanoic acid], the “150 μM % change after addition” value in [1] (setting [10]) was −8%. Besides, the “500 μM % change after addition” value in series [1] (setting [11]) worked out at 9%.

Consider `CCC(Oc1ccc(Cl)cc1)C(=O)O` (stereo not shown) [Compound C7, 2-(4-chlorophenoxy)butanoic acid], for which, in series [1] (setting [10]), the “150 μM % change after addition” value amounted to 0%. For the same molecule, the “500 μM % change after addition” value in series [1] (setting [11]) is 40%.

Consider `C[C@H](Oc1ccc(Br)cc1)C(=O)O` [Compound C8, (2S)-2-(4-bromophenoxy)propanoic acid], for which, in [3], the “increase in running distance on Day Two compared to Day One” value is “around 150%”. Moreover, the “effect of combination on recovery of neuromuscular transmission” value in series [4] was “unexpected synergistic effect”. Also, the “150 μM % change after addition” value in series [1] (setting [10]) is recorded as 23%. For the same molecule, the CI_obs in [5] came to 48.69 mL/h. In [5], this molecule registered a VD_obs of 259.62 mL. Also, in series [6], the “nerve-stimulated contractile force, % of force before rocuronium” value stood at 81±4%. In addition, the “EPP amplitude compared to control conditions” value in series [7] was “significantly larger EPPs”. Moreover, the “contractile force at elevated K+ and TTX” value in series [8] is given as “markedly recovery”. Moreover, the “50 μM % change after addition” value in series [2] (50 μM compound, 3.5 mM Mg2+, % change in AUC force vs column 3 (after 70 min at elevated Mg2+)) is listed as 13 ± 4%. In addition, in series [2] (100 μM compound, 3.5 mM Mg2+, % change in AUC force vs column 3 (after 70 min at elevated Mg2+)), the “100 μM % change after addition” value was determined as 26 ± 5%. The “rotarod running performance after injection” value in [9] (20 mg/kg I.P.) is listed as “decline was reduced”; in series [9] (30 mg/kg I.P.), “clear recovery of performance”.

For `Cl.NCC(Oc1ccc(F)cc1)C(=O)O` (stereo not shown) [Compound C9, 3-amino-2-(4-fluorophenoxy)propanoic acid hydrochloride], the “150 μM % change after addition” value in series [1] (setting [10]) is reported as −13%. Further, in series [1] (setting [11]), the “500 μM % change after addition” value is given as 5%.

As to `CC(Oc1ccc(Cl)cc1)C(=O)Oc1ccc(Cl)cc1` (stereo not shown) [Compound C11, 4-chlorophenyl 2-(4-chlorophenoxy)propanoate], in series [1], the “150 μM % change after addition” value was determined as 54%.

Turning to `COCC(C)C(Oc1ccc(Br)cc1)C(=O)O` (stereo not shown) [Compound C21, 2-(4-bromophenoxy)-4-methoxy-3-methylbutanoic acid], the “150 μM % change after addition” value in [1] (setting [10]) is listed as 7%. Moreover, the “500 μM % change after addition” value in series [1] (setting [11]) turned out to be 36%.
